Results: US10519134B2, “Pyrazole compounds and methods of making and using same” (Lundbeck La Jolla Research Center, Inc., priority 2015, dated 2019)

Key:
Format in all cases: biochemical
MAGL [1] = molecular target: T1, MAGL (Mus musculus, UniProt O35678); experiment: In vitro competitive activity-based protein profiling (mouse), MAGL gel band; settings: for inhibition at 1 µM: read-out: MAGL % inh. 1 μM; for IC50: mouse
T1 construct: Proteomes (mouse brain membrane fraction or cell lysates); from tissue; host or cells: mouse brain membrane fraction (or cell lysates)
T1 sequence (O35678 1-303): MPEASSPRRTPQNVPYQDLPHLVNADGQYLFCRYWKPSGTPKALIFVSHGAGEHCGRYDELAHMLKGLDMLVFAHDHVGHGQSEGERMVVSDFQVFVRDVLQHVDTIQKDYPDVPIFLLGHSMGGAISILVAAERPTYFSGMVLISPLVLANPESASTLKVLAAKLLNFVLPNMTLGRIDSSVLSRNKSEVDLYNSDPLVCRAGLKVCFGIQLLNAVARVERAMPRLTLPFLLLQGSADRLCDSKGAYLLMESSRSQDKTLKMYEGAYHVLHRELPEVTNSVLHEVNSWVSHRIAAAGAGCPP
In short: (§1)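 Mouse brain membrane proteome or cell lysate (1.0 mg/mL protein) preincubated 30 min at 37 °C with varying inhibitor concentrations, then labelled 30 min at 37 °C with FP-Rh or HT-01 probe (50 μM stock). After SDS-PAGE, activity taken from fluorescent intensity of the MAGL and FAAH gel bands.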

FAAH = molecular target: T2, FAAH (Mus musculus, UniProt O08914); experiment: In vitro competitive activity-based protein profiling (mouse), FAAH gel band; settings: for inhibition at 1 µM: read-out: FAAH % inh. 1 μM; for IC50: mouse
T2 construct: Proteomes (mouse brain membrane fraction or cell lysates); from tissue; host or cells: mouse brain membrane fraction (or cell lysates)
T2 sequence (O08914 1-579): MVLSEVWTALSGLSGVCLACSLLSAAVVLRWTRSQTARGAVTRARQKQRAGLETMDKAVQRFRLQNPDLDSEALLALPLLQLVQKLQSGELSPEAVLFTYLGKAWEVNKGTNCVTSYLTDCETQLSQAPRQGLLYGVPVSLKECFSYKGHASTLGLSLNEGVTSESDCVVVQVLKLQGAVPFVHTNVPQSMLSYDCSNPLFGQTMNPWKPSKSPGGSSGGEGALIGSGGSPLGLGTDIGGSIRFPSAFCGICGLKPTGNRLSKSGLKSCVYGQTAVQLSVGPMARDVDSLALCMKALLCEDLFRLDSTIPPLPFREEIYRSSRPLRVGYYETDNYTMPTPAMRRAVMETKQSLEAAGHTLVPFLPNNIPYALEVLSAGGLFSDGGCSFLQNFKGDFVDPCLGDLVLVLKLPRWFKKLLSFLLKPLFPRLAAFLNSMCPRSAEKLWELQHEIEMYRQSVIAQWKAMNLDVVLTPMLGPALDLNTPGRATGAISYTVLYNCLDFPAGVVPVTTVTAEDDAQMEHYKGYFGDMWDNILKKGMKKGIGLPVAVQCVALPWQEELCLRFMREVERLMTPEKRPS
In short: as §1

MAGL [2] = molecular target: T3, MAGL (Homo sapiens, UniProt Q99685); experiment: In vitro competitive activity-based protein profiling (human), MAGL gel band
T3 construct: Proteomes (human prefrontal cortex or cell membrane fractions); from tissue; host or cells: human prefrontal cortex (or cell membrane fractions)
T3 sequence (Q99685 1-303): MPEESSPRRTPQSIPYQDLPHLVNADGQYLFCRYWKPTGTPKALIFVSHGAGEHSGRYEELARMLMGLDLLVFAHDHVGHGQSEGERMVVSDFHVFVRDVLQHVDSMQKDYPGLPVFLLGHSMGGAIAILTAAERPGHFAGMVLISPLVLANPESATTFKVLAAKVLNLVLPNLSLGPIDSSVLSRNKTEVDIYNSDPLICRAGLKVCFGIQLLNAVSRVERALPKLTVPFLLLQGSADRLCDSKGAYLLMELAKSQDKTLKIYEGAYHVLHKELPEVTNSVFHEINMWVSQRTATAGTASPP
Method: In Vitro Competitive Activity-Based Protein Profiling (Human).
Proteomes (human prefrontal cortex or cell membrane fractions) (50 μL, 1.0-2.0 mg/mL total protein concentration) were preincubated with varying concentrations of inhibitors at 37° C. After 30 min, FP-Rh or JW912 (1.0 μL, 50 μM in DMSO) was added and the mixture was incubated for another 30 min at room temperature. Reactions were quenched with SDS loading buffer (15 μL—4×) and run on SDS-PAGE. Following gel imaging, serine hydrolase activity was determined by measuring fluorescent intensity of gel bands corresponding to MAGL using ImageJ 1.49k software.

SMILES	inhibition at 1 µM (MAGL [1])	inhibition at 1 µM (FAAH)	IC50 (MAGL [2])	IC50 (MAGL [1])	IC50 (FAAH)	inhibition at 1 µM (MAGL [2]; at 1 μM, read-out: MAGL human % inh at 1 μM)
CC(=O)N1CCC2(CC1)CCN(c1cc(CN3CCN(C(=O)n4ccc(NS(C)(=O)=O)n4)CC3)ccc1Cl)C2 [Example 216, N-(1-(4-(3-(8-acetyl-2,8-diazaspiro[4.5]decan-2-yl)-4-chlorobenzyl)piperazine-1-carbonyl)-1H-pyrazol-3-yl) methanesulfonamide]	≥ 75%	0 to 25%	100 to 1000 nM	–	–	–
CC(=O)NC1CCN(c2cc(C(F)(F)F)ccc2CN2CCN(C(=O)n3ccc(NS(C)(=O)=O)n3)CC2)CC1 [Example 269, N-(1-(2-((4-(3-(methylsulfonamido)-1H-pyrazole-1-carbonyl)piperazin-1-yl)methyl)-5-(trifluoromethyl)phenyl)piperidin-4-yl)acetamide]	≥ 75%	0 to 25%	≤ 100 nM	≤ 100 nM	1000 to 10000 nM	–
CC1CCCN1c1cc(C(F)(F)F)ccc1CN1CCN(C(=O)n2ccc(NS(C)(=O)=O)n2)CC1 (centres unmarked) [Example 189, N-(1-(4-(2-(2-methylpyrrolidin-1-yl)-4-(trifluoromethyl)benzyl)piperazine-1-carbonyl)-1H-pyrazol-3-yl) methanesulfonamide]	≥ 75%	0 to 25%	≤ 100 nM	–	–	–
CC(=O)N1CC2(CCN(c3cc(C(F)(F)F)ccc3CN3CCN(C(=O)n4ccc(NS(C)(=O)=O)n4)CC3)CC2)C1 [Example 228, N-(1-(4-(2-(2-acetyl-2,7-diazaspiro[3.5]nonan-7-yl)-4-(trifluoromethyl)benzyl)piperazine-1-carbonyl)-1H-pyrazol-3-yl) methanesulfonamide]	≥ 75%	0 to 25%	≤ 100 nM	–	–	–
CC(C)(O)C1CCN(c2cc(C(F)(F)F)ccc2CN2CCN(C(=O)n3ccc(NS(C)(=O)=O)n3)CC2)CC1 [Example 270, N-(1-(4-(2-(4-(2-hydroxypropan-2-yl)piperidin-1-yl)-4-(trifluoromethyl)benzyl)piperazine-1-carbonyl)-1H-pyrazol-3-yl) methanesulfonamide]	≥ 75%	0 to 25%	≤ 100 nM	≤ 100 nM	1000 to 10000 nM	–
CS(=O)(=O)Nc1ccn(C(=O)N2CCN(Cc3ccc(N4CCCC4)c(Cl)c3)CC2)n1 [Example 166, N-(1-(4-(3-chloro-4-(pyrrolidin-1-yl)benzyl)piperazine-1-carbonyl)-1H-pyrazol-3-yl) methanesulfonamide]	≥ 75%	0 to 25%	≤ 100 nM	–	–	–
CS(=O)(=O)Nc1ccn(C(=O)N2CCN(Cc3ccc(C(F)(F)F)cc3N3CCOCC3)CC2)n1 [Example 140, N-(1-(4-(2-morpholino-4-(trifluoromethyl)benzyl)piperazine-1-carbonyl)-1H-pyrazol-3-yl) methanesulfonamide]	≥ 75%	0 to 25%	≤ 100 nM	100 to 1000 nM	1000 to 10000 nM	–
CN(C)C(=O)C1CCN(c2cc(C(F)(F)F)ccc2CN2CCN(C(=O)n3ccc(NS(C)(=O)=O)n3)CC2)CC1 [Example 231, N,N-dimethyl-1-(2-((4-(3-(methylsulfonamido)-1H-pyrazole-1-carbonyl)piperazin-1-yl)methyl)-5-(trifluoromethyl)phenyl)piperidine-4-carboxamide]	≥ 75%	0 to 25%	≤ 100 nM	–	–	–
CS(=O)(=O)Nc1ccn(C(=O)N2CCN(Cc3ccc(C(F)(F)F)cc3N3CCC4(CCN(S(C)(=O)=O)CC4)C3)CC2)n1 [Example 235, N-(1-(4-(2-(8-(methylsulfonyl)-2,8-diazaspiro[4.5]decan-2-yl)-4-(trifluoromethyl)benzyl)piperazine-1-carbonyl)-1H-pyrazol-3-yl) methanesulfonamide]	≥ 75%	0 to 25%	≤ 100 nM	–	–	–
CS(=O)(=O)Nc1ccn(C(=O)N2CCN(Cc3ccc(C(F)(F)F)cc3N3CC4COCC4C3)CC2)n1 (centres unmarked) [Example 205, N-(1-(4-(2-(tetrahydro-1H-furo[3,4-c]pyrrol-5(3H)-yl)-4-(trifluoromethyl)benzyl)piperazine-1-carbonyl)-1H-pyrazol-3-yl) methanesulfonamide]	≥ 75%	0 to 25%	≤ 100 nM	–	–	–
CS(=O)(=O)Nc1ccn(C(=O)N2CCN(Cc3ccc(C(F)(F)F)cc3C3CCN(CC(=O)O)CC3)CC2)n1 [Example 118, 2-(4-(2-((4-(3-(methylsulfonamido)-1H-pyrazole-1-carbonyl)piperazin-1-yl)methyl)-5-(trifluoromethyl)phenyl)piperidin-1-yl)acetic Acid]	0 to 25%	0 to 25%	–	–	–	25%
CC(=O)Nc1ccn(C(=O)N2CCN(Cc3ccc(C(F)(F)F)cc3N3CCN4CCC[C@@H]4C3)CC2)n1 [Example 268, (R)-N-(1-(4-(2-(hexahydropyrrolo[1,2-a]pyrazin-2(1H)-yl)-4-(trifluoromethyl)benzyl)piperazine-1-carbonyl)-1H-pyrazol-3-yl)acetamide]	≥ 75%	0 to 25%	≤ 100 nM	≤ 100 nM	1000 to 10000 nM	–
CS(=O)(=O)Nc1ccn(C(=O)N2CCC3(CCCN3Cc3ccc(C(F)(F)F)cc3Cl)CC2)n1 [Example 197, N-(1-(1-(2-chloro-4-(trifluoromethyl)benzyl)-1,8-diazaspiro[4.5]decane-8-carbonyl)-1H-pyrazol-3-yl) methanesulfonamide]	≥ 75%	0 to 25%	≤ 100 nM	–	–	–
CS(=O)(=O)Nc1ccn(C(=O)N2CCN(Cc3ccc(Cl)c(N4CC[C@@H](O)C4)c3)CC2)n1 [Example 293, (R)-N-(1-(4-(4-chloro-3-(3-hydroxypyrrolidin-1-yl)benzyl)piperazine-1-carbonyl)-1H-pyrazol-3-yl) methanesulfonamide]	≥ 75%	0 to 25%	≤ 100 nM	–	–	–
CS(=O)(=O)Nc1ccn(C(=O)N2CCN(Cc3ccc(C(F)(F)F)cc3N3CCC(C(=O)O)C3)CC2)n1 (centres unmarked) [Example 190, 1-(2-((4-(3-(methylsulfonamido)-1H-pyrazole-1-carbonyl)piperazin-1-yl)methyl)-5-(trifluoromethyl)phenyl) pyrrolidine-3-carboxylic acid]	≥ 75%	0 to 25%	≤ 100 nM	–	–	–
C#Cc1ccc(CN2CCN(C(=O)n3ccc(NC(C)=O)n3)CC2)cc1 [Example 210, N-(1-(4-(4-ethynylbenzyl)piperazine-1-carbonyl)-1H-pyrazol-3-yl) acetamide]	≥ 75%	0 to 25%	≤ 100 nM	–	–	–
CS(=O)(=O)Nc1ccn(C(=O)N2CCC3(CCCN3Cc3ccc(N4CCCC4)c(C(F)(F)F)c3)CC2)n1 [Example 159, N-(1-(1-(4-(pyrrolidin-1-yl)-3-(trifluoromethyl)benzyl)-1,8-diazaspiro[4.5]decane-8-carbonyl)-1H-pyrazol-3-yl) methanesulfonamide]	≥ 75%	0 to 25%	100 to 1000 nM	–	–	–
CS(=O)(=O)Nc1ccn(C(=O)N2CCN(Cc3ccc(C(F)(F)F)cc3-c3nccs3)CC2)n1 [Example 211, N-(1-(4-(2-(thiazol-2-yl)-4-(trifluoromethyl)benzyl)piperazine-1-carbonyl)-1H-pyrazol-3-yl) methanesulfonamide]	≥ 75%	0 to 25%	≤ 100 nM	–	–	–
